Test results: patent US9133104B2 (Chroma Therapeutics Ltd., priority 2005, dated 2015)

Legend:
[1] = molecular target: T1, histone deacetylase activity (HeLa nuclear extract); assay: HDAC fluorescent activity assay (Biomol Fluor de Lys), HeLa nuclear extract; format: biochemical; details: Fluor de Lys substrate, IC50 range
T1 construct: Histone deacetylase activity from crude nuclear extract derived from HeLa cells was used for screening
Procedure, shortened: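 Crude HeLa nuclear extract (20 mM Hepes, 100 mM KCl, 0.2 mM EDTA, 0.5 mM DTT, 0.2 mM PMSF, 20% glycerol) incubated with acetyl-lysine Fluor de Lys substrate ± inhibitor; developer generates fluorophore. Background-subtracted % of vehicle control; IC50 from eight-point variable-slope sigmoidal fit.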

Hela cancer cell line = assay: Cell inhibition assay (SRB cell viability), Hela; format: cell-based; details: Homo sapiens, HeLa, 72 h, Hela cells, IC50 range
Procedure, shortened: (§1)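 Log-phase Hela, U937 and HUT cells were seeded at 1000 cells/well, grown 24 h, then exposed to compound (20 uM final) for 72 h. Viability was read by sulphorhodamine B staining and expressed as % inhibition relative to DMSO control. IC50 values came from sigmoidal variable-slope fits of eight concentrations.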

U937 cancer cell line = assay: Cell inhibition assay (SRB cell viability), U937; format: cell-based; details: Homo sapiens, U-937, U937 cells, 72 h, IC50 range
Procedure, shortened: as §1

HUT cancer cell line = assay: Cell inhibition assay (SRB cell viability), HUT; format: cell-based; details: HUT cells, 72 h, IC50 range
Procedure, shortened: as §1

| Compound | IC50 [1] [µM] | IC50 (Hela cancer cell line) [µM] | IC50 (U937 cancer cell line) [µM] | IC50 (HUT cancer cell line) [µM] |
| --- | --- | --- | --- | --- |
| O=C(CCCCCCC(=O)Nc1ccc(CN[C@H](C(=O)O)c2ccccc2)cc1)NO [Compound 21, (S)-[4-(7-Hydroxycarbamoyl-heptanoylamino)-benzylamino]-phenyl-acetic acid] | 0.101 to 1 | > 3.3 | > 3.3 | > 3.3 |
| O=C(CCCCCCC(=O)Nc1ccccc1CN[C@H](C(=O)O)c1ccccc1)NO [Compound 41, (S)-[2-(7-Hydroxycarbamoyl-heptanoylamino)-benzylamino]-phenyl-acetic acid] | > 1 | > 3.3 | > 3.3 | > 3.3 |
| CC(C)(C)SC[C@H](NCc1ccc(CNCc2ccc3cc(C(=O)NO)sc3c2)cc1)C(=O)OC1CCCC1 [Compound 113, (R)-3-tert-Butylsulfanyl-2-(4-{[(2-hydroxycarbamoyl-benzo[b]thiophen-6-ylmethyl)-amino]-methyl}-benzylamino)-propionic acid cyclopentyl ester] | 0.101 to 1 | 0.33 to 3.3 | 0.33 to 3.3 | 0.33 to 3.3 |
| CC(C)C[C@H](NCC1CCC(CNCc2ccc3cc(C(=O)NO)sc3c2)CC1)C(=O)OC1CCCC1 (stereo partly drawn) [Compound 128, (S)-2-[(4-{[(2-Hydroxycarbamoyl-benzo[b]thiophen-6-ylmethyl)-amino]-methyl}-cyclohexylmethyl)-amino]-4-methyl-pentanoic acid cyclopentylester] | 0.101 to 1 | 0.33 to 3.3 | < 0.33 | < 0.33 |
| O=C(CCCCCCC(=O)N1Cc2[nH]c3ccccc3c2C[C@H]1C(=O)N[C@H](C(=O)O)c1ccccc1)NO [Compound 4, (S)-{[(S)-2-(7-Hydroxycarbamoyl-heptanoyl)-2,3,4,9-tetrahydro-1H-beta-carboline-3-carbonyl]-amino}-phenyl-acetic acid] | 0.101 to 1 | > 3.3 | > 3.3 | > 3.3 |
| CC(C)(C)OC(=O)[C@H](Cc1ccccc1)NCc1cncc(NC(=O)CCCCCCC(=O)NO)c1 [Compound 68, (S)-2-{[5-(7-Hydroxycarbamoyl-heptanoylamino)-pyridin-3-ylmethyl]-amino}-3-phenyl-propionic acid tert-butyl ester] | 0.101 to 1 | > 3.3 | 0.33 to 3.3 | 0.33 to 3.3 |
| CC(C)(C)OC(=O)[C@@H](NCc1cccc(NC(=O)CCCCCCC(=O)NO)c1)c1ccccc1 [Compound 35, (S)-[3-(7-Hydroxycarbamoyl-heptanoylamino)-benzylamino]-phenyl-acetic acid tert-butyl ester] | 0.101 to 1 | 0.33 to 3.3 | 0.33 to 3.3 | 0.33 to 3.3 |
| CC(C)(C)[C@H](NCc1ccc(CNCc2ccc3cc(C(=O)NO)sc3c2)cc1)C(=O)OC1CCCC1 [Compound 115, (S)-2-(4-{[(2-Hydroxycarbamoyl-benzo[b]thiophen-6-ylmethyl)-amino]-methyl}-benzylamino)-3,3-dimethyl-butyric acid cyclopentyl ester] | 0.101 to 1 | 0.33 to 3.3 | 0.33 to 3.3 | 0.33 to 3.3 |
| CC(C)C[C@H](NC(=O)[C@@H]1Cc2ccccc2CN1C(=O)CCCCCCC(=O)NO)C(=O)OC1CCCC1 [Compound 51, (S)-2-{[(S)-2-(7-Hydroxycarbamoyl-heptanoyl)-1,2,3,4-tetrahydro-isoquinoline-3-carbonyl]-amino}-4-methyl-pentanoic acid cyclopentyl ester] | 0.101 to 1 | > 3.3 | 0.33 to 3.3 | 0.33 to 3.3 |
| CC(C)C[C@H](NC(=O)c1ccc(NC(=O)CCCCCCC(=O)NO)cc1)C(=O)OC1CCCC1 [Compound 98, (S)-2-[4-(7-Hydroxycarbamoyl-heptanoylamino)-benzoylamino]-4-methyl-pentanoic acid cyclopentyl ester] | 0.101 to 1 | 0.33 to 3.3 | 0.33 to 3.3 | 0.33 to 3.3 |
| O=C(CCCCCCC(=O)N1Cc2ccccc2C[C@H]1C(=O)N[C@@H](Cc1ccccc1)C(=O)O)NO [Compound 48, (S)-2-{[(S)-2-(7-Hydroxycarbamoyl-heptanoyl)-1,2,3,4-tetrahydro-isoquinoline-3-carbonyl]-amino}-3-phenyl-propionic acid] | > 1 | > 3.3 | 0.33 to 3.3 | 0.33 to 3.3 |
